Reference: patent US11590244B2, “Methods for renal function determination” (MediBeacon Inc., priority 2017, dated 2023)
Like-named read-outs stand apart in the source and are kept apart here.

Legend:
[1] = Stability testing, HPLC evaluation of stored samples; format: physicochemical; conditions: 25° C. and 60% relative humidity
Method: Samples of MB-102 were prepared and stored at 25° C. and 60% relative humidity for 24 months. HPLC evaluation of each sample was performed at various time points to assess the stability of the samples.

[2] = Clinical pharmacokinetic study of MB-102 given intravenously: plasma and urine collection; format: in vivo, human; conditions: for half-life: plasma
Method: In a clinical study, 60 human patients were administered MB-102 ((2R,2′R)-2,2′-((3,6-diaminopyrazine-2,5-dicarbonyl)bis(azanediyl))bis(3-hydroxypropanoic acid)) prepared in Example 12) intravenously. Blood and urine were collected in addition to the methods and techniques disclosed herein. Standard pharmacokinetic data was collected and comparison was made between the methods and techniques disclosed herein to Omnipaque® (iohexol), a known contrast agent used for GFR determination.
Shown in FIGS. 3A to 3D are data collected from the 60 human patients tested with MB-102. Plasma pharmacokinetic data was collected and analyzed using methods known in the art and compared to the data measured using the methods and techniques disclosed herein.
FIGS. 3A to 3D illustrate a two compartment pharmacokinetic model for the elimination of MB-102. The model is consistent for patients regardless of their GFR values. FIG. 3A is for patients having normal kidney function having a measured GFR (mGFR) of 120 mL/min. FIG. 3B is for patients having a mGFR of 81 mL/min. FIG. 3C is for patients having a mGFR of 28 mL/min. FIG. 3D is for patients having a mGFR of 25 mL/min. The first compartment in the two compartment model is the vascular to tissue equilibrium while the second compartment illustrates renal excretion only. On average, the time for equilibration is about one hour, and is subject dependent.
As part of the clinical 1 study for MB-102, urine was collected from patients for 12 hours to determine the amount recovered and degree of secondary metabolism. […] For patients having normal, stage 1 and stage 2 renal function, 12 hour collection time was sufficient for greater than 99% recovery of MB-102. In view of the pharmacokinetic data and the plasma half-life determination, less than complete collection is readily understood for patients having more serious renal function impairment.
Shown in FIG. 6 is the plasma concentration half-life of MB-102 for patients having either normal kidney function, stage 1 renal impairment, stage 2 renal impairment, stage 3 renal impairment, or stage 4 renal impairment.

[3] = patients having a mGFR value below 60, 12 hours

Q: What does the source list for Nc1nc(C(=O)N[C@H](CO)C(=O)O)c(N)nc1C(=O)N[C@H](CO)C(=O)O [MB-102]?
A: Purity (HPLC) ([1]; 0 months): >99%; Purity (HPLC) ([1]; 6 months): >99%; Purity (HPLC) ([1]; 12 months): 98.9%; Purity (HPLC) ([1]; 18 months): 98.3%; Purity (HPLC) ([1]; 24 months): 97.8%; time for equilibration (vascular to tissue equilibrium) ([2]; human patients, intravenous, on average, subject dependent): about one; half-life ([2]; human, intravenous, stage 2 and 3 groups (so in the source), read-out: average plasma half-life (converted)): 2.5 h; half-life ([2]; human, intravenous, stage 3 renal impairment, read-out: plasma half-life (converted)): 4 h; half-life ([2]; human, intravenous, stage 4 renal impairment, read-out: plasma half-life (converted)): 8 h; dose excreted ([2]; human, urine, intravenous, patients having normal, stage 1 and stage 2 renal function, 12 hour collection time, read-out: recovery from urine): > 99%; average plasma half-life ([2]; normal renal function group): two; degree of secondary metabolism (urine) [2, 3]: unmetabolized; recovery from urine [2, 3]: a lower percentage was recovered; recovered unmetabolized from urine ([2]; patients having an eGFR greater than 60, after 12 hours): greater than 99%
